Test results: patent publication US10857105B2, “Compounds and compositions for intracellular delivery of therapeutic agents” (ModernaTX, Inc., priority 2017, dated 2020)

Columns and labels:
[1] = Residual lipid levels in rat liver and spleen (UPLC-MS); type: in vivo; settings: rats, 2 mpk, 48 h; assuming 300 g rat and 15 g liver
Method: At 48 h liver tissue was harvested for lipid quantification. To pre-weighed tissues, Milli-Q water was added (900 μL water per 100 mg tissue). Tissues were homogenized using an Omni probe homogenizer until uniform. 50 μL of samples and matrix calibration standards were aliquoted into a 96-well plate. 50 μL of blank matrix for matrix blanks and control blanks were aliquoted. 400 μL IS spiking solution were manually added to all samples except matrix blanks. 400 μL of 50:50 ACN:IPA were manually added to matrix-blanks. The plate was covered and the samples vortexed and centrifuged for 5 minutes at >3000 rpm. 200 μL of the samples were transferred into a clean 96-well plate for analysis. Samples were analyzed on a Waters Acquity UPLC using a Higgins Analytical Clipeus C8 column ([…], 30×2.1 mm) and a gradient of either 70-95% or 60-95% (Mobile Phase A: 5 mM ammonium formate in 50:50:1 H2O:MeOH:formic acid; Mobile Phase B: 5 mM ammonium formate in 100:1 MeOH:formic acid) over 1.3 min at […] (column temperature 55° C.). Detection was based on electrospray ionization (ESI) in positive mode using a Sciex API5500 Mass Spectrometer.
(§1) The expression of hEPO in rats intravenously administered a nanoparticle composition at a dose of 0.2 mpk or 2.0 mpk was measured at 6 hours. Table 16 summarize the ratio of hEPO expression levels using various nanoparticle compositions as compared to the hEPO expression level using MC3 formulation and the lipid levels in the liver measured 48 hours after administration, as described above. Tables 17 and 18 summarize the lipid levels in the liver and spleen measured 48 hours after administration of Compounds 28, 33, 53, and 54. Liver and spleen levels represent the average values calculated for 3 rats in each group. As is shown in Tables 17 and 18, less than 10% of Compounds 28, 33, 53, and 54 remained in the liver after 48 hours, while greater than 60% of MC3 remained.
(§2) Table 19A summarizes the hEPO expression, IP-10 induction, liver and spleen levels, and alanine aminotransferase (ALT) and aspartate aminotransferase (AST) measured upon intravenous administration of formulations including Compounds 48, 49, and 50 to rat at 0.2 and 2 mpk and hEPO mRNA. hEPO concentrations were measured 6 hours after administration, while cytokine induction and liver and spleen levels were measured 48 hours after administration. hEPO and IP-10 concentrations are presented in pg/ml, while liver levels are provided in ng/g. ALT and AST levels are presented in international units.
(§3) The expression of hEPO and lipid levels in the liver and spleen in rats intravenously administered a nanoparticle composition at a dose of 0.2 mpk was measured at various time points. Compounds 18 and 25 were selected for comparison with MC3. Lipids were formulated according to the standard MC3 formulation described above. Rats were administered intravenously a single 0.2 mpk dose and expression monitored at 0.25, 0.5, 1, 2, 4, 8, 24, and 48 hours after administration.

modified luciferase = test: Luciferase expression in liver, lung, spleen and femur 6 hours after intravenous administration to mice; type: in vivo; settings: 6 hours after intravenous 0.5 mpk, mice
Summary of the method: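 Mice (n=3) got a single 0.5 mpk IV dose of each nanoparticle composition, with MC3 and PBS controls alongside. Organ luminescence flux was read 6 h post-dose.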

hEPO mRNA = test: hEPO expression after intravenous administration to rats; type: in vivo, rat; settings: rats, 6 hours; for Lipid/MC3 hEPO conc. ratio, 0.2 mpk: intravenous 0.2 mpk; for Lipid/MC3 hEPO conc. ratio, 2 mpk: intravenous 2 mpk
Method: The expression of hEPO and cytokine induction in rats intravenously administered a nanoparticle composition at a dose of 2.0 mpk was measured at 6 h.
as §1, §2
The expression of hEPO induced by intravenous administration to rats of nanoparticle compositions at various doses was measured at 2, 4, 6, 8, 24, and 48 hour time points. FIGS. 3-6 respectively summarize the hEPO expression measured upon intravenous administration of formulations including Compounds 26, 18, 25, and MC3 to rat at various doses. The lipid levels of Compound 26 in the liver after 48 hours were about 19%.
as §3

[2] = Particle size and polydispersity index of nanoparticle compositions (Zetasizer Nano ZS); type: physicochemical
Summary of the method: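 Formulations of ionizable lipid, DSPC, cholesterol and PEG-DMG (50:10:38.5:1.5 mol %) carrying Luc or hEPO mRNA with all uridines as N1-methyl pseudouridine. Dynamic light scattering in 1×PBS gave particle size and polydispersity; zeta potential read in 15 mM PBS.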

[3] = Encapsulation efficiency of RNA in nanoparticle compositions (RIBOGREEN assay); type: physicochemical; settings: Table 1A; lipid:DSPC:cholesterol:PEG-DMG 50:10:38.5:1.5 mol %
Summary of the method: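 Lipid nanoparticles (ionisable lipid:DSPC:cholesterol:PEG-DMG 50:10:38.5:1.5 mol %) carrying N1-methylpseudouridine luciferase or hEPO mRNA diluted to about 5 μg/mL in TE, pH 7.5, with or without 2% Triton X-100, 15 min at 37° C. RiboGreen fluorescence (ex ~480, em ~520 nm) blank-subtracted; free RNA = intact/disrupted signal.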

IL-6, IP-10 = test: Cytokine induction (IL-6, IP-10) in mice 6 hours after intravenous administration; type: in vivo; parameters: unit not given here; settings: intravenous 0.5 mpk
Summary of the method: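 IL-6 and IP-10 concentrations determined 6 hours after a single intravenous 0.5 mpk dose of lipid nanoparticle formulation in mice, with MC3 and PBS as comparators.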

[4] = Chemical stability of lipids in ethanol at room temperature and 37° C. (lipid purity); type: physicochemical
Method: Ester linkages were previously reported to trigger metabolism by esterases in vivo. (See Fukami, T. et al. Drug Metab. Pharmacokinet. 2012, 27, 466-477, the content of which is incorporated by reference herein in its entirety). […] (See Maier M. A., Mol. Ther. 2013, 21, 1570-1578, the content of which is incorporated herein in its entirety) First, the chemical stability of the lipids was evaluated by measuring ethanol stability at room temperature and 37° C. (Table 39). […] LNPs formed with compound 138 were larger, with a surface pKa>7. […] Removal of one ester function (compound 136) afforded LNPs with improved physiochemical characteristics and lower LNP surface pKa.

luciferase (Luc) mRNA = test: Luciferase expression (whole body bioluminescence) after intravenous administration to mice; type: in vivo; settings: Table 3G, intravenous, luciferase, 6 hr. timepoint, relative to MC3
Summary of the method: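 Luc mRNA nanoparticles were given IV at 0.5 mg/kg to groups of six mice, and whole-body bioluminescent flux was imaged 3, 6 and 24 h post-dose. Flux AUC for each lipid formulation was reported as a ratio to the MC3 reference formulation.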

[5] = Lipid clearance: mouse liver tissue level and % dose remaining in liver after intravenous administration; type: in vivo; settings: mouse, liver, 0.5 mg/kg
CD-1 mice = test: Luciferase expression after intravenous delivery of luciferase mRNA LNPs (bioluminescent imaging); type: in vivo; settings: intravenous 0.5 mg/kg mRNA dose
Method: Whole body and ex vivo organ bioluminescent imaging of mice: CD-1 mice were injected 15 minutes prior to the imaging timepoint intraperitoneally (IP) with 200 μL Xenolight D-luciferin K+ salt, diluted in PBS just prior to use to a concentration of 15 mg/mL. Ex vivo imaging of organs was completed, within 25 minutes of luciferin administration. All images were quantified by region of interest for total flux.
[…] […] (See Semple, S.C. et al., Nature Biotech. 2010. 28, 172-176, Jayaraman, M., et al. Angew. Chem. Int. Ed. 2012, 51, 8529-8533, the entire contents of each of which are incorporated by reference herein in their entireties). To evaluate the efficiency of the new amino lipids, LNPs using the novel compounds were tested in vivo in mice using luciferase mRNA as a reporter. An MC3 LNP was included as a control in each experiment, enabling the comparison of LNPs from experiment to experiment. Measured luciferase activity also enabled the determination of protein bio-distribution.

[6] = Table 1A, lipid:DSPC:cholesterol:PEG-DMG 50:10:38.5:1.5 mol %
[7] = Table 1D, compositions for subcutaneous administration, # formulated with hEPO mRNA

| SMILES | % Lipid Remaining in liver, 48 h, 2 mpk [1] [%] | Total Flux, Liver (modified luciferase) | Total Flux, Lung (modified luciferase) | Total Flux, Spleen (modified luciferase) | Lipid/MC3 hEPO conc. ratio, 0.2 mpk (hEPO mRNA) | Lipid/MC3 hEPO conc. ratio, 2 mpk (hEPO mRNA) | Size [2, 6] [nm] | Size [2, 7] [nm] | Total Flux, Femur (modified luciferase) | EE [3] [%] | Cytokine induction, IL-6 (IL-6, IP-10) | Cytokine induction, IP-10 (IL-6, IP-10) | Lipid Purity, t = 96 h, 25° C. [4] [%] | Lipid Purity, t = 96 h, 37° C. [4] [%] | Lipid Purity, t = 0 [4] [%] | Novel lipid/MC3 ratio, i.v. (luciferase (Luc) mRNA) | concentration at 6 h [5] [ng/g] | concentration at 24 h [5] [ng/g] | localization of protein expression (whole body imaging) (CD-1 mice) | luciferase activity/expression compared to MC3 LNP control (words) (CD-1 mice) |
| --- | --- | --- | --- | --- | --- | --- | --- | --- | --- | --- | --- | --- | --- | --- | --- | --- | --- | --- | --- | --- |
| CCCCCCCCC(CC)OC(=O)CCCCCCCN(CCO)CCCCCCCC(=O)OC(CCCCCCCC)CCCCCCCC (stereo not shown) [Compound 49, heptadecan-9-yl 8-((2-hydroxyethyl)(8-oxo-8-(undecan-3-yloxy)octyl)amino)octanoate] | 12.6 | 5.68E+09 | 2.52E+07 | 1.87E+08 | 4.13 | 3.28 | 88 | 74.0 | – | – | – | – | – | – | – | – | – | – | – | – |
| CCCCCCCCC(CCC)OC(=O)CCCCCCCN(CCO)CCCCCCCC(=O)OC(CCCCCCCC)CCCCCCCC (stereo not shown) [Compound 50, dodecan-4-yl 8-((8-(heptadecan-9-yloxy)-8-oxooctyl)(2-hydroxyethyl)amino)octanoate] | 15.9 | 6.30E+09 | 2.81E+07 | 1.14E+08 | 3.41 | 3.03 | 68.4 | – | – | – | – | – | – | – | – | – | – | – | – | – |
| CCCCC/C=C\C/C=C\CCCCCCCCN(CCO)CCCCCCCC(=O)OCCCCCCCCC [Compound 136, Nonyl 8-((2-hydroxyethyl)((9Z,12Z)-octadeca-9,12-dien-1-yl)amino)octanoate] | – | 1.34E+08 | 8.91E+05 | 2.77E+07 | – | – | – | – | 6.60E+05 | 90.9 | 28.69 | 887.91 | 93.17 | 93.86 | 91.81 | – | – | – | – | – |
| CCCCCCCCCOC(=O)C(C)CCCCCCN(CCO)CCCCCCCC(=O)OC(CCCCCCCC)CCCCCCCC (stereo not shown) [Compound 164, Nonyl 8-((8-(heptadecan-9-yloxy)-8-oxooctyl)(2-hydroxyethyl)amino)-2-methyloctanoate] | – | – | – | – | – | – | 84.5 | 75.7 | – | 91.2 | – | – | – | – | – | 1.24 | 36000 | 24200 | – | – |
| CCCCCCCCCC(=O)OC(C)CCCCCCN(CCO)CCCCCCCOC(=O)C(CCCCCCCC)CCCCCCCC (stereo not shown) [Compound 165, 7-((7-(Decanoyloxy)octyl)(2-hydroxyethyl)amino)heptyl 2-octyldecanoate] | – | – | – | – | – | – | 84.6 | 74.3 | – | 92.9 | – | – | – | – | – | 2.12 | 26900 | 11700 | – | – |
| CCCCCCCCCOC(=O)CCCCCCCN(CCO)CCCCCCCC(=O)OCCCCCCCCC [compound 138, Dinonyl 8,8′-((2-hydroxyethyl)azanediyl)dioctanoate] | – | 3.66E+06 | 9.47E+04 | 4.04E+06 | – | – | – | – | 1.58E+05 | 91.8 | 23.38 | 172.56 | 98.64 | 97.82 | 97.59 | – | – | – | – | – |
| CCCCCCCCCOC(=O)CCCCCCCN(CCCCCCCC(=O)OC(CCCCCCCC)CCCCCCCC)CCCNC(=O)C(C)(C)COC [compound 281, Heptadecan-9-yl 8-((3-(3-methoxy-2,2-dimethylpropanamido)propyl)(8-(nonyloxy)-8-oxooctyl)amino)octanoate] | – | – | – | – | – | – | – | – | – | – | – | – | 95.15 | 96.47 | 95.17 | – | – | – | majority of protein expression was localized in the liver | two-fold lower |
